Measurements reported in patent EP2061765B1, “Serine-threonine protein kinase and PARP modulators” (Senhwa Biosciences, Inc., priority 2006, dated 2008).

How the values were obtained:
Test in all cases: Cell proliferation assay (Alamar Blue)
Assay type in all cases: cell-based
MiaPaCa = details: Homo sapiens, MIA PaCa-2, 96 h, MiaPaCa cells, four days
Method: (§1) A representative cell-proliferation assay protocol using Alamar Blue dye (stored at 4°C, use 20ul per well) is described hereafter. 96-well plate setup and compound treatment • a. Split and trypsinize cells. • b. Count cells using hemocytometer. • c. Plate 4,000-5,000 cells per well in 100 µl of medium and seed into a 96-well plate according to the following plate layout. Add cell culture medium only to wells B10 to B12. Wells B1 to B9 have cells but no compound added. [formula] [formula] • d. Add 100 µl of 2X drug dilution to each well in a concentration shown in the plate layout above. At the same time, add 100 µl of media into the control wells (wells B10 to B12). Total volume is 200 µl/well. • e. Incubate four (4) days at 37°C, 5% CO2 in a humidified incubator. • f. Add 20µl Alamar Blue reagent to each well. • g. Incubate for four (4) hours at 37°C, 5% CO2 in a humidified incubator. • h. Record fluorescence at an excitation wavelength of 544nm and emission wavelength of 590nm using a microplate reader.
(§2) In the assays, cells are cultured with a test compound for approximately four days, the dye then is added to the cells and fluorescence of […] dye is detected after approximately four hours. Different types of cells can be utilized in the assays (e.g., HCT-116 human colorectal carcinoma cells, PC-3 human prostatic cancer cells and MiaPaca human pancreatic carcinoma cells). Anti-proliferative effects of representative compounds are provided hereafter.

Jurkat = details: Homo sapiens, 96 h, Jurkat cells, four days
Method: as §1, §2

HCT-116 = details: Homo sapiens, 96 h, HCT-116 cells, four days

Question: `O=C(O)c1ccc2c(c1)nc(Nc1ccccc1)c1nc(NC3CCNCC3)ncc12` [drawing 323] was tested. Which IC50 (MiaPaCa) did it give?
Answer: Its IC50 is 14.4 µM.

Question: What about the IC50 (Jurkat) of the same compound?
Answer: Its IC50 is 18.9 µM.

Question: What about the IC50 (HCT-116) of the same compound?
Answer: Its IC50 is over 10 µM.

Question: Which results are given for `O=C(O)c1ccc2c(c1)nc(Nc1ccccc1)c1nc(NCCN3CCOCC3)ncc12` [drawing 325]?
Answer: IC50 (MiaPaCa): 1.69 µM; IC50 (Jurkat): 5.7 µM; IC50 (HCT-116): > 10 µM

Question: For `O=C(O)c1ccc2c(c1)nc(Nc1ccccc1)c1nc(Nc3ccccc3)ncc12` [drawing 369], which IC50 (MiaPaCa) is on record?
Answer: The IC50 was 5.12 µM.

Question: And the IC50 (Jurkat)?
Answer: Its IC50 is 8.98 µM.

Question: What about the IC50 (HCT-116) of the same compound?
Answer: Its IC50 is over 10 µM.

Question: What does the source list for `CCNc1ncc2c(n1)c(Nc1cccc(Cl)c1)nc1cc(C(=O)O)ccc12` [drawing 342]?
Answer: IC50 (MiaPaCa): 0.92 µM; IC50 (Jurkat): 3.06 µM

Question: For `CCCNc1ncc2c(n1)c(Nc1ccccc1)nc1cc(C(=O)O)ccc12` [drawing 319], which IC50 (MiaPaCa) is on record?
Answer: The IC50 was 2.99 µM.

Question: What about the IC50 (Jurkat) of the same compound?
Answer: The IC50 was 4.53 µM.

Question: And the IC50 (HCT-116)?
Answer: The IC50 was over 10 µM.

Question: `O=C(O)c1ccc2c(c1)nc(Nc1ccccc1)c1nc(NCCCN3CCOCC3)ncc12` [drawing 326] was tested. Which IC50 (MiaPaCa) did it give?
Answer: The IC50 was 1.36 µM.

Question: What about the IC50 (Jurkat) of the same compound?
Answer: The IC50 was 2.18 µM.

Question: And the IC50 (HCT-116)?
Answer: Its IC50 is over 10 µM.

Question: Which IC50 (MiaPaCa) does the source give for `O=C(O)c1ccc2c(c1)nc(Nc1cccc(C(F)(F)F)c1)c1ncncc12` [drawing 335] here?
Answer: Its IC50 is 2.23 µM.

Question: What about the IC50 (Jurkat) of the same compound?
Answer: Its IC50 is 2.53 µM.

Question: What about the IC50 (HCT-116) of the same compound?
Answer: The IC50 was over 10 µM.

Question: Which results are given for `NC(=O)c1ccc2c(c1)nc(Nc1cccc(C(F)(F)F)c1)c1nc(NC3CC3)ncc12` [drawing 364]?
Answer: IC50 (MiaPaCa): 3.97 µM; IC50 (Jurkat): 1.16 µM; IC50 (HCT-116): > 10 µM

Question: With `O=C(O)c1ccc2c(c1)nc(Nc1cc(F)cc(F)c1)c1nc(NC3CC3)ncc12` [drawing 358] as the compound, how does the IC50 (MiaPaCa) read?
Answer: The IC50 was 2.32 µM.

Question: And the IC50 (Jurkat)?
Answer: Its IC50 is 6.02 µM.

Question: And the IC50 (HCT-116)?
Answer: The IC50 was over 10 µM.

Question: `Cc1cccc(Nc2nc3cc(C(=O)O)ccc3c3cnccc23)c1` [drawing 356] was tested. Which IC50 (MiaPaCa) did it give?
Answer: The IC50 was 8.33 µM.

Question: And the IC50 (Jurkat)?
Answer: Its IC50 is 3.45 µM.

Question: And the IC50 (HCT-116)?
Answer: Its IC50 is over 10 µM.

Question: `C#Cc1cccc(Nc2nc3cc(C(=O)OC)ccc3c3cnc(NOC)nc23)c1` [drawing 352] was tested. Which IC50 (MiaPaCa) did it give?
Answer: Its IC50 is over 50 µM.

Question: What about the IC50 (Jurkat) of the same compound?
Answer: Its IC50 is 27 µM.

Question: And the IC50 (HCT-116)?
Answer: Its IC50 is over 10 µM.

Question: How did the IC50 (MiaPaCa) turn out when `O=C(O)c1ccc2c(c1)nc(Nc1cccc(Cl)c1)c1nc(O)ncc12` [drawing 350] was run?
Answer: The IC50 was over 50 µM.

Question: What about the IC50 (Jurkat) of the same compound?
Answer: Its IC50 is over 50 µM.

Question: What about the IC50 (HCT-116) of the same compound?
Answer: The IC50 was over 10 µM.

Question: How did the IC50 (MiaPaCa) turn out when `O=C(O)CCNc1ncc2c(n1)c(Nc1cccc(Cl)c1)nc1cc(C(=O)O)ccc12` [drawing 355] was run?
Answer: Its IC50 is over 50 µM.

Question: What about the IC50 (Jurkat) of the same compound?
Answer: Its IC50 is over 50 µM.

Question: What about the IC50 (HCT-116) of the same compound?
Answer: Its IC50 is over 10 µM.

Question: With `O=C(O)c1ccc2c(c1)nc(Nc1ccc(F)c(Cl)c1)c1nc(NCc3ccncc3)ncc12` [drawing 368] as the compound, how does the IC50 (MiaPaCa) read?
Answer: Its IC50 is 4.5 µM.

Question: And the IC50 (Jurkat)?
Answer: The IC50 was 5.11 µM.

Question: What about the IC50 (HCT-116) of the same compound?
Answer: Its IC50 is over 10 µM.

Question: Which results are given for `CNc1ncc2c(n1)c(Nc1ccc(F)c(Cl)c1)nc1cc(C(=O)O)ccc12` [drawing 343]?
Answer: IC50 (MiaPaCa): 0.65 µM; IC50 (Jurkat): 1.24 µM; IC50 (HCT-116): > 10 µM

Question: For `c1ccc(Nc2nc3cc(-c4nnn[nH]4)ccc3c3cnccc23)cc1`, which IC50 (HCT-116) is on record?
Answer: The IC50 was over 10 µM.

Question: Which results are given for `CNc1ncc2c(n1)c(Nc1ccccc1)nc1cc(C(=O)OC)ccc12`?
Answer: IC50 (MiaPaCa): > 10 µM; IC50 (HCT-116): 4.06 µM

Question: Which IC50 (MiaPaCa) does the source give for `COC(=O)c1ccc2c(c1)nc(Nc1cccc(Cl)c1)c1ccncc12` here?
Answer: The IC50 was over 10 µM.

Question: What about the IC50 (HCT-116) of the same compound?
Answer: Its IC50 is over 10 µM.

Question: For `O=C(O)c1ccc2c(c1)nc(Nc1cccc(C(F)(F)F)c1)c1nc(NC3CC3)ncc12` [drawing 341], which IC50 (MiaPaCa) is on record?
Answer: The IC50 was 0.65 µM.

Question: And the IC50 (Jurkat)?
Answer: Its IC50 is 3.13 µM.

Question: What does the source list for `COC(=O)c1ccc2c(c1)nc(Nc1ccccc1)c1nc(S(C)(=O)=O)ncc12`?
Answer: IC50 (MiaPaCa): 2.82 µM; IC50 (HCT-116): 0.97 µM

Question: How did the IC50 (MiaPaCa) turn out when `COC(=O)c1ccc2c(c1)nc(Cl)c1ncncc12` was run?
Answer: Its IC50 is 2.92 µM.

Question: What about the IC50 (HCT-116) of the same compound?
Answer: Its IC50 is 1.71 µM.

Question: What does the source list for `OCc1ccc2c(c1)nc(Nc1cccc(Cl)c1)c1ccncc12`?
Answer: IC50 (MiaPaCa): 4.05 µM; IC50 (HCT-116): 4.28 µM

Question: How did the IC50 (HCT-116) turn out when `Cc1noc(-c2ccc3c(c2)nc(Nc2ccccc2)c2ccncc23)n1` was run?
Answer: Its IC50 is over 10 µM.

Question: What does the source list for `O=C(NC1CC1)c1ccc2c(c1)nc(Nc1cccc(C(F)(F)F)c1)c1nc(NC3CC3)ncc12` [drawing 365]?
Answer: IC50 (Jurkat): 3.92 µM; IC50 (HCT-116): > 10 µM

Question: Which results are given for `CC(C)OC(=O)Nc1ccc2c(c1)nc(Nc1cccc(C(F)(F)F)c1)c1nc(NC3CC3)ncc12` [drawing 370]?
Answer: IC50 (Jurkat): 1.16 µM; IC50 (HCT-116): > 10 µM

Question: For `COC(=O)c1ccc2c(c1)nc(Nc1ccccc1)c1nc(SC)ncc12`, which IC50 (MiaPaCa) is on record?
Answer: Its IC50 is over 10 µM.

Question: What about the IC50 (HCT-116) of the same compound?
Answer: The IC50 was 9.56 µM.

Question: `N#Cc1ccc2c(c1)nc(Nc1ccccc1)c1ccncc12` was tested. Which IC50 (HCT-116) did it give?
Answer: The IC50 was 6.9 µM.
